# Reference: patent US20240398811A1, “PRC2 INHIBITORS FOR USE IN TREATING BLOOD DISORDERS” (ORIC Pharmaceuticals, Inc., priority 2021, published 2024)
# Target: purified human, His-tagged PRC2 complex (Homo sapiens (Human), UniProt O75530)
# Assay: Hot Spot HMT assay, inhibition of PRC2 enzymatic activity
# Assay type: biochemical
# Details: 10 nM PRC2 complex, 1 μM 3H-SAM, core histone H3, 10-point dose-response
# In short: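 Five-subunit PRC2 complex (EZH2, EED, SUZ12, AEBP2, RbAp48; 10 nM) preincubated 20 min at 30° C with compound (top 1.0 μM) and 0.05 mg/ml core histone H3 in Tris-HCl, 1% DMSO. Started with 1 μM [3H]SAM, 1 hr at 30° C; tritiated H3 measured by filter binding and scintillation.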
# purified human, His-tagged PRC2 complex, sequence (O75530 whole entry): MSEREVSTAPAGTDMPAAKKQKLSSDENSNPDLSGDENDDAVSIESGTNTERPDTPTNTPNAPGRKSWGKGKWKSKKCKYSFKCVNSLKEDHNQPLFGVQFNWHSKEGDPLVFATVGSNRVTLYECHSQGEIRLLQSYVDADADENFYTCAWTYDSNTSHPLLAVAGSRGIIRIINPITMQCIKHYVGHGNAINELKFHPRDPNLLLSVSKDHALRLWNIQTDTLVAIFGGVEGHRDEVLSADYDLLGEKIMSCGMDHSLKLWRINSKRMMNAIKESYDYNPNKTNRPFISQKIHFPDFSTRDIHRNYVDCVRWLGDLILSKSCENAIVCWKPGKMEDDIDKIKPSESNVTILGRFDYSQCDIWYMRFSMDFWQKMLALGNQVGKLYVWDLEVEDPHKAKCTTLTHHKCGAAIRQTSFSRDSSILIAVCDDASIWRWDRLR
# purified human, His-tagged PRC2 complex, sequence (Q15910 whole entry partner): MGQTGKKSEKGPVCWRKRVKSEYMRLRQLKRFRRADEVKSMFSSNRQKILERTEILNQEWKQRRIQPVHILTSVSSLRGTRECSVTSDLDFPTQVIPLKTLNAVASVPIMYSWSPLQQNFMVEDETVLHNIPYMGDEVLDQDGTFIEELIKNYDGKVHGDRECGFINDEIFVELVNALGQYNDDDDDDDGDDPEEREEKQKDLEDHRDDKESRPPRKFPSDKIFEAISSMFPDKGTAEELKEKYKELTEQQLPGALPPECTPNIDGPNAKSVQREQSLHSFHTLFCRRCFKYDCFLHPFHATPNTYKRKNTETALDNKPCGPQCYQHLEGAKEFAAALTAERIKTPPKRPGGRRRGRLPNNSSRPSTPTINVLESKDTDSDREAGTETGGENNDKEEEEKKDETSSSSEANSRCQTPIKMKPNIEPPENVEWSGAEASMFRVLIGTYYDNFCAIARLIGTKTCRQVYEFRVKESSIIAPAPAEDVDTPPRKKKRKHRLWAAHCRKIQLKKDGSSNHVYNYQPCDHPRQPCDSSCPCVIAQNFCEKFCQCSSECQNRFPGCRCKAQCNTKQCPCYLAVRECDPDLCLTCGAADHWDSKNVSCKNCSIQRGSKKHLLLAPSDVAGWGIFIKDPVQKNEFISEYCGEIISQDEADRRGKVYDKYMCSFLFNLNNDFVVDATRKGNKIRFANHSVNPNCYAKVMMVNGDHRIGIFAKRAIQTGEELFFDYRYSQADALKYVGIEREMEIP
# purified human, His-tagged PRC2 complex, sequence (Q15022 whole entry partner): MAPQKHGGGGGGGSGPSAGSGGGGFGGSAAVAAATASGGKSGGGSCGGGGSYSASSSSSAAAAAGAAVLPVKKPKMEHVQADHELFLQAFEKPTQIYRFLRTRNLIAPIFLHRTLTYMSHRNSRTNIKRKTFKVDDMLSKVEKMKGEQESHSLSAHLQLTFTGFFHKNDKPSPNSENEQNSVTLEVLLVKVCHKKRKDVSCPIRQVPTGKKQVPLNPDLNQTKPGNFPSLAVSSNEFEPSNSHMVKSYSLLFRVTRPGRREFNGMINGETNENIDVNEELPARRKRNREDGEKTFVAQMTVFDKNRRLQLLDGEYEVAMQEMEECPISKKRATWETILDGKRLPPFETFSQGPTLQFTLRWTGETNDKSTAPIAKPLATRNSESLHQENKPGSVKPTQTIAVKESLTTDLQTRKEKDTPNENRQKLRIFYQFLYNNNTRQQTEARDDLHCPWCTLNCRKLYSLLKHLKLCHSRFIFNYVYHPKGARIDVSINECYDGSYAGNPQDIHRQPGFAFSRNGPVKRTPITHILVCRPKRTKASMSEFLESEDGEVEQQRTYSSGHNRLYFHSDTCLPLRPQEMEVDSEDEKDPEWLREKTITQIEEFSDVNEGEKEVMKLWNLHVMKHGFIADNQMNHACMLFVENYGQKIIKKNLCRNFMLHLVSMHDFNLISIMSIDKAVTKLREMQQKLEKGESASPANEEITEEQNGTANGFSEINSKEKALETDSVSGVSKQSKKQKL
# purified human, His-tagged PRC2 complex, sequence (Q6ZN18 whole entry partner): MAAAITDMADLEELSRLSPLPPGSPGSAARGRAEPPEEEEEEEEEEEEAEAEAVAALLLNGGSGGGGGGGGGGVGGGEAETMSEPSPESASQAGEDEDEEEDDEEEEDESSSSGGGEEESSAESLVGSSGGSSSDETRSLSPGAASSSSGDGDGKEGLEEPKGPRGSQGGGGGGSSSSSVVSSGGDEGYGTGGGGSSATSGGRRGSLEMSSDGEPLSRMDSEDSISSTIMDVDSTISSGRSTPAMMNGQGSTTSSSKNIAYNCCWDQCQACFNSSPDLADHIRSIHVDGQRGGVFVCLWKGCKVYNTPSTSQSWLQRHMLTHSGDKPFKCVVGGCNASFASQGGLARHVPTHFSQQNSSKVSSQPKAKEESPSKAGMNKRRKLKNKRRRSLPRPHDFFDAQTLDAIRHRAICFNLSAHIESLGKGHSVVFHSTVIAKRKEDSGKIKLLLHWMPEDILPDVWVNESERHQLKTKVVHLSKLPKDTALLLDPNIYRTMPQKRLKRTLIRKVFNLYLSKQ
# purified human, His-tagged PRC2 complex, sequence (Q09028 whole entry partner): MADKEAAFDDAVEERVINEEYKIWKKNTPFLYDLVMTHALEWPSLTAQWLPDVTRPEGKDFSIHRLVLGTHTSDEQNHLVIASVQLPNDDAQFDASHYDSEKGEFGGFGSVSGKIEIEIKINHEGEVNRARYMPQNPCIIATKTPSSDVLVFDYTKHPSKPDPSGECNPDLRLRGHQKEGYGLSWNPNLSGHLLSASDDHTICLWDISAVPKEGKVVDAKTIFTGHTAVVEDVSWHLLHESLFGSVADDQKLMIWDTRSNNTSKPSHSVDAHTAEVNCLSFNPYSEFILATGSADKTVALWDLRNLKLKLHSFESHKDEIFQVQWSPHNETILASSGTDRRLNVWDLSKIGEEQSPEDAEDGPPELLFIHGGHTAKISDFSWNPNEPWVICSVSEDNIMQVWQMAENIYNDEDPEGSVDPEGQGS
row,IC50,Structure (SMILES)
1,< 100 nM,"N#Cc1cn2c(NCc3c(F)ccc4c3CCO4)ncc(-c3ccc(-c4nnn[nH]4)cc3)c2n1 [Example 190, 8-(4-(1H-tetrazol-5-yl)phenyl)-5-(((5-fluoro-2,3-dihydrobenzofuran-4-yl)methyl)amino)imidazo[1,2-c]pyrimidine-2-carbonitrile]"
2,100 to 500 nM,"COCCOc1ncc(-c2cnc(NCc3c(F)ccc4c3CCO4)n3cc(C#N)nc23)cn1 [Example 191, 5-(((5-fluoro-2,3-dihydrobenzofuran-4-yl)methyl)amino)-8-(2-(2-methoxyethoxy)pyrimidin-5-yl)imidazo[1,2-c]pyrimidine-2-carbonitrile]"
3,> 500 nM,"Cc1ccc(-c2cnc(NCc3c(F)ccc4c3CCO4)n3cc(C#N)nc23)c(C)c1 [Example 192, 8-(2,4-dimethylphenyl)-5-(((5-fluoro-2,3-dihydrobenzofuran-4-yl)methyl)amino)imidazo[1,2-c]pyrimidine-2-carbonitrile]"
4,< 100 nM,"N#Cc1cn2c(NCc3c(F)ccc4c3CCO4)ncc(-c3ccnn3C3CC3)c2n1 [Example 193, 8-(1-cyclopropyl-1H-pyrazol-5-yl)-5-(((5-fluoro-2,3-dihydrobenzofuran-4-yl)methyl)amino)imidazo[1,2-c]pyrimidine-2-carbonitrile]"
5,100 to 500 nM,"Cn1nccc(-c2cnc(NCc3c(F)ccc4c3CCO4)n3cc(C#N)nc23)c1=O [Example 194, 5-(((5-fluoro-2,3-dihydrobenzofuran-4-yl)methyl)amino)-8-(2-methyl-3-oxo-2,3-dihydropyridazin-4-yl)imidazo[1,2-c]pyrimidine-2-carbonitrile]"
6,< 100 nM,"Cc1cc(CN(C)C)ncc1-c1cnc(NCc2c(F)ccc3c2CCO3)n2cc(C#N)nc12 [Example 195, 8-(6-((dimethylamino)methyl)-4-methylpyridin-3-yl)-5-(((5-fluoro-2,3-dihydrobenzofuran-4-yl)methyl)amino)imidazo[1,2-c]pyrimidine-2-carbonitrile]"
7,100 to 500 nM,"CNCc1ccc(-c2cnc(NCc3c(F)ccc4c3CCO4)n3cc(C#N)nc23)c(C)c1 [Example 196, 5-(((5-fluoro-2,3-dihydrobenzofuran-4-yl)methyl)amino)-8-(2-methyl-4-((methylamino)methyl)phenyl)imidazo[1,2-c]pyrimidine-2-carbonitrile]"
8,< 100 nM,"CNCc1ccc(-c2cnc(NCc3c(F)ccc4c3CCO4)n3cc(C#N)nc23)cc1F [Example 197, 5-(((5-fluoro-2,3-dihydrobenzofuran-4-yl)methyl)amino)-8-(3-fluoro-4-((methylamino)methyl)phenyl)imidazo[1,2-c]pyrimidine-2-carbonitrile]"
9,< 100 nM,"CN(C)Cc1ccc(-c2cnc(NCc3c(F)ccc4c3CCO4)n3cc(C#N)nc23)c(C#N)c1 [Example 198, 8-(2-cyano-4-((dimethylamino)methyl)phenyl)-5-(((5-fluoro-2,3-dihydrobenzofuran-4-yl)methyl)amino)imidazo[1,2-c]pyrimidine-2-carbonitrile]"
10,< 100 nM,"CC(c1ccc(-c2cnc(NCc3c(F)ccc4c3CCO4)n3cc(C#N)nc23)cc1)N(C)C (stereo not shown) [Example 199, 8-(4-(1-(dimethylamino)ethyl)phenyl)-5-(((5-fluoro-2,3-dihydrobenzofuran-4-yl)methyl)amino)imidazo[1,2-c]pyrimidine-2-carbonitrile]"
11,100 to 500 nM,"Cc1cc(-c2cnc(NCc3c(F)ccc4c3CCO4)n3cc(C#N)nc23)ccc1CN(C)C [Example 200, 8-(4-((dimethylamino)methyl)-3-methylphenyl)-5-(((5-fluoro-2,3-dihydrobenzofuran-4-yl)methyl)amino)imidazo[1,2-c]pyrimidine-2-carbonitrile]"
12,< 100 nM,"CN(C)Cc1ccc(-c2cnc(NCc3c(F)ccc4c3CCO4)n3cc(C#N)nc23)cc1C#N [Example 201, 8-(3-cyano-4-((dimethylamino)methyl)phenyl)-5-(((5-fluoro-2,3-dihydrobenzofuran-4-yl)methyl)amino)imidazo[1,2-c]pyrimidine-2-carbonitrile]"
13,< 100 nM,"[2H]C([2H])([2H])N(Cc1ccc(-c2cnc(NCc3c(F)ccc4c3CCO4)n3cc(C#N)nc23)c(C)c1)C([2H])([2H])[2H] [Example 202, 8-(4-((bis(methyl-d3)amino)methyl)-2-methylphenyl)-5-(((5-fluoro-2,3-dihydrobenzofuran-4-yl)methyl)amino)imidazo[1,2-c]pyrimidine-2-carbonitrile]"
14,100 to 500 nM,"N#Cc1cn2c(NCc3c(F)ccc4c3CCO4)ncc(-c3ccc4c(c3)CCNC4)c2n1 [Example 203, 5-(((5-fluoro-2,3-dihydrobenzofuran-4-yl)methyl)amino)-8-(1,2,3,4-tetrahydroisoquinolin-6-yl)imidazo[1,2-c]pyrimidine-2-carbonitrile]"
15,100 to 500 nM,"N#Cc1cn2c(NCc3c(F)ccc4c3CCO4)ncc(-c3ccc(C4CCCN4)cc3)c2n1 (stereo not shown) [Example 204, 5-(((5-fluoro-2,3-dihydrobenzofuran-4-yl)methyl)amino)-8-(4-(pyrrolidin-2-yl)phenyl)imidazo[1,2-c]pyrimidine-2-carbonitrile]"
16,100 to 500 nM,"N#Cc1cn2c(NCc3c(F)ccc4c3CCO4)ncc(-c3ccc4c(c3)CNC4)c2n1 [Example 205, 5-(((5-fluoro-2,3-dihydrobenzofuran-4-yl)methyl)amino)-8-(isoindolin-5-yl)imidazo[1,2-c]pyrimidine-2-carbonitrile]"
17,100 to 500 nM,"COCCOc1ccc(-c2cnc(NCc3c(F)ccc4c3CCO4)n3cc(C#N)nc23)c(C)c1 [Example 206, 5-(((5-fluoro-2,3-dihydrobenzofuran-4-yl)methyl)amino)-8-(4-(2-methoxyethoxy)-2-methylphenyl)imidazo[1,2-c]pyrimidine-2-carbonitrile]"
18,< 100 nM,"Cc1cc(CN(C)C)ccc1-c1cnc(NCc2c(F)ccc3c2C(O)CO3)n2cc(C#N)nc12 (stereo not shown) [Example 207, 8-(4-((dimethylamino)methyl)-2-methylphenyl)-5-(((5-fluoro-3-hydroxy-2,3-dihydrobenzofuran-4-yl)methyl)amino)imidazo[1,2-c]pyrimidine-2-carbonitrile]"
19,< 100 nM,"CNC(=O)c1cc(-c2cnc(NCc3c(F)ccc4c3CCO4)n3cc(C#N)nc23)n(C)n1 [Example 208, 5-(2-cyano-5-(((5-fluoro-2,3-dihydrobenzofuran-4-yl)methyl)amino)imidazo[1,2-c]pyrimidin-8-yl)-N,1-dimethyl-1H-pyrazole-3-carboxamide]"
20,< 100 nM,"CN(C)Cc1cc(-c2cnc(NCc3c(F)ccc4c3CCO4)n3cc(C#N)nc23)n(C)n1 [Example 210, 8-(3-((dimethylamino)methyl)-1-methyl-1H-pyrazol-5-yl)-5-(((5-fluoro-2,3-dihydrobenzofuran-4-yl)methyl)amino)imidazo[1,2-c]pyrimidine-2-carbonitrile]"
21,< 100 nM,"CNCc1cc(-c2cnc(NCc3c(F)ccc4c3CCO4)n3cc(C#N)nc23)n(C)n1 [Example 211, 5-(((5-fluoro-2,3-dihydrobenzofuran-4-yl)methyl)amino)-8-(1-methyl-3-((methylamino)methyl)-1H-pyrazol-5-yl)imidazo[1,2-c]pyrimidine-2-carbonitrile]"
22,< 100 nM,"Cn1nc(C#N)cc1-c1cnc(NCc2c(F)ccc3c2CCO3)n2cc(C#N)nc12 [Example 212, 8-(3-cyano-1-methyl-1H-pyrazol-5-yl)-5-(((5-fluoro-2,3-dihydrobenzofuran-4-yl)methyl)amino)imidazo[1,2-c]pyrimidine-2-carbonitrile]"
